Results: PubChem BioAssay AID1259407 (Chemical Carcinogenesis Research Information System (CCRIS), 2018)
The source made the active and inactive calls. How the calls were made is not given here.

System: CCRIS mutagenicity, Ames/micronucleus/aberration tests
Test: CCRIS mutagenicity studies
[1] = Test System: AMES SALMONELLA TYPHIMURIUM, Strain/Indicator: TA97, Metabolic Activation: NONE, Method: PREINCUBATION
[2] = Test System: AMES SALMONELLA TYPHIMURIUM, Strain/Indicator: TA97, Metabolic Activation: RAT, LIVER, S-9, AROCLOR 1254, Method: PREINCUBATION
[3] = Test System: AMES SALMONELLA TYPHIMURIUM, Strain/Indicator: TA98, Metabolic Activation: NONE, Method: PREINCUBATION
[4] = Test System: AMES SALMONELLA TYPHIMURIUM, Strain/Indicator: TA100, Metabolic Activation: NONE, Method: PREINCUBATION
[5] = Test System: AMES SALMONELLA TYPHIMURIUM, Strain/Indicator: TA102, Metabolic Activation: NONE, Method: PREINCUBATION
[6] = Test System: AMES SALMONELLA TYPHIMURIUM, Strain/Indicator: TA102, Metabolic Activation: RAT, LIVER, S-9, AROCLOR 1254, Method: PREINCUBATION
[7] = Test System: AMES SALMONELLA TYPHIMURIUM, Strain/Indicator: TA104, Metabolic Activation: NONE, Method: PREINCUBATION
[8] = Test System: AMES SALMONELLA TYPHIMURIUM, Strain/Indicator: TA1535, Metabolic Activation: NONE, Method: PREINCUBATION
[9] = Test System: AMES SALMONELLA TYPHIMURIUM, Strain/Indicator: TA1537, Metabolic Activation: NONE, Method: PREINCUBATION

O=[N+]([O-])CBr
mutagenic call (End Point: In vitro micronucleus, Test System: Human lymphoblastoid TK6 cells, Metabolic Activation: None): inactive; negative | mutagenic call (End Point: In vitro micronucleus, Test System: Human peripheral blood lymphocytes, Metabolic Activation: None): inactive; negative | mutagenic call (Test System: Ames Salmonella typhimurium, Strain/Indicator: RSJ100, Metabolic Activation: None, Method: Standard plate): inactive; negative | mutagenic call (Test System: Ames Salmonella typhimurium, Strain/Indicator: RSJ100, Metabolic Activation: Rat, Liver, S-9, Aroclor, Method: Standard plate): inactive; negative | mutagenic call (Test System: Ames Salmonella typhimurium, Strain/Indicator: TA98, Metabolic Activation: None, Method: Standard plate): inactive; negative | mutagenic call (Test System: Ames Salmonella typhimurium, Strain/Indicator: TA98, Metabolic Activation: Rat, Liver, S-9, Aroclor, Method: Standard plate): inactive; negative | mutagenic call (Test System: Ames Salmonella typhimurium, Strain/Indicator: TA100, Metabolic Activation: None, Method: Standard plate): active; positive | mutagenic call (Test System: Ames Salmonella typhimurium, Strain/Indicator: TA100, Metabolic Activation: Rat, Liver, S-9, Aroclor, Method: Standard plate): active; positive | mutagenic call (Test System: Ames Salmonella typhimurium, Strain/Indicator: TA104, Metabolic Activation: None, Method: Standard plate): inactive; negative | mutagenic call (Test System: Ames Salmonella typhimurium, Strain/Indicator: TPT100, Metabolic Activation: None, Method: Standard plate): inactive; negative

CCCC(=O)O
mutagenic call [1]: inactive; negative | mutagenic call [2]: inactive; negative | mutagenic call [3]: inactive; negative | mutagenic call (Test System: AMES SALMONELLA TYPHIMURIUM, Strain/Indicator: TA98, Metabolic Activation: RAT LIVER S-9, PHENOBARBITAL AND BETA-NAPHTHOFLAVONE, Method: PREINCUBATION): inactive; negative | mutagenic call [4]: inactive; negative | mutagenic call (Test System: AMES SALMONELLA TYPHIMURIUM, Strain/Indicator: TA100, Metabolic Activation: RAT LIVER S-9, PHENOBARBITAL AND BETA-NAPHTHOFLAVONE, Method: PREINCUBATION): inactive; negative | mutagenic call [5]: inactive; negative | mutagenic call (Test System: AMES SALMONELLA TYPHIMURIUM, Strain/Indicator: TA102, Metabolic Activation: RAT LIVER S-9, PHENOBARBITAL AND BETA-NAPHTHOFLAVONE, Method: PREINCUBATION): inactive; negative | mutagenic call [6]: inactive; negative | mutagenic call [7]: inactive; negative | mutagenic call (Test System: AMES SALMONELLA TYPHIMURIUM, Strain/Indicator: TA104, Metabolic Activation: RAT LIVER S-9, PHENOBARBITAL AND BETA-NAPHTHOFLAVONE, Method: PREINCUBATION): inactive; negative | mutagenic call [8]: inactive; negative | mutagenic call (Test System: AMES SALMONELLA TYPHIMURIUM, Strain/Indicator: TA1535, Metabolic Activation: RAT LIVER S-9, PHENOBARBITAL AND BETA-NAPHTHOFLAVONE, Method: PREINCUBATION): inactive; negative | mutagenic call [9]: inactive; negative | mutagenic call (Test System: AMES SALMONELLA TYPHIMURIUM, Strain/Indicator: TA1537, Metabolic Activation: RAT LIVER S-9, PHENOBARBITAL AND BETA-NAPHTHOFLAVONE, Method: PREINCUBATION): inactive; negative | mutagenic call (Test System: E.COLI, Strain/Indicator: WP2UVRA/PKM101, Metabolic Activation: NONE, Method: PREINCUBATION): inactive; negative | mutagenic call (Test System: E.COLI, Strain/Indicator: WP2UVRA/PKM101, Metabolic Activation: RAT LIVER S-9, PHENOBARBITAL AND BETA-NAPHTHOFLAVONE, Method: PREINCUBATION): inactive; negative | mutagenic call (Test System: E.COLI, Strain/Indicator: WP2UVRA, Metabolic Activation: NONE, Method: PREINCUBATION): inactive; negative | mutagenic call (Test System: E.COLI, Strain/Indicator: WP2UVRA, Metabolic Activation: RAT LIVER S-9, PHENOBARBITAL AND BETA-NAPHTHOFLAVONE, Method: PREINCUBATION): inactive; negative

CC(Cl)CO (stereo unspecified)
mutagenic call (Test System: AMES SALMONELLA TYPHIMURIUM, Strain/Indicator: TA1530, Metabolic Activation: NONE, Method: STANDARD PLATE): active; positive | mutagenic call (Test System: AMES SALMONELLA TYPHIMURIUM, Strain/Indicator: TA1535, Metabolic Activation: RAT, LIVER, S-9, PCB, Method: STANDARD PLATE): active; positive

CC[C@H]1CN2CCc3cc(OC)c(OC)cc3[C@@H]2C[C@@H]1C[C@H]1NCCc2cc(OC)c(OC)cc21
mutagenic call (Test System: AMES SALMONELLA TYPHIMURIUM, Strain/Indicator: TA98, Metabolic Activation: HAMSTER, LIVER, S-9, AROCLOR 1254 (10%), Method: PREINCUBATION): inactive; negative | mutagenic call [3]: inactive; negative | mutagenic call (Test System: AMES SALMONELLA TYPHIMURIUM, Strain/Indicator: TA98, Metabolic Activation: RAT, LIVER, S-9, AROCLOR 1254 (10%), Method: PREINCUBATION): inactive; negative | mutagenic call (Test System: AMES SALMONELLA TYPHIMURIUM, Strain/Indicator: TA100, Metabolic Activation: HAMSTER, LIVER, S-9, AROCLOR 1254 (10%), Method: PREINCUBATION): inactive; negative | mutagenic call [4]: inactive; negative | mutagenic call (Test System: AMES SALMONELLA TYPHIMURIUM, Strain/Indicator: TA100, Metabolic Activation: RAT, LIVER, S-9, AROCLOR 1254 (10%), Method: PREINCUBATION): inactive; negative | mutagenic call (Test System: AMES SALMONELLA TYPHIMURIUM, Strain/Indicator: TA1535, Metabolic Activation: HAMSTER, LIVER, S-9, AROCLOR 1254 (10%), Method: PREINCUBATION): inactive; negative | mutagenic call [8]: inactive; negative | mutagenic call (Test System: AMES SALMONELLA TYPHIMURIUM, Strain/Indicator: TA1535, Metabolic Activation: RAT, LIVER, S-9, AROCLOR 1254 (10%), Method: PREINCUBATION): inactive; negative | mutagenic call (Test System: AMES SALMONELLA TYPHIMURIUM, Strain/Indicator: TA1537, Metabolic Activation: HAMSTER, LIVER, S-9, AROCLOR 1254 (10%), Method: PREINCUBATION): inactive; negative | mutagenic call [9]: inactive; negative | mutagenic call (Test System: AMES SALMONELLA TYPHIMURIUM, Strain/Indicator: TA1537, Metabolic Activation: RAT, LIVER, S-9, AROCLOR 1254 (10%), Method: PREINCUBATION): inactive; negative

O=c1ccn([C@@H]2O[C@H](COP(=O)(O)O)[C@@H](O)[C@H]2O)c(=O)[nH]1
mutagenic call [1]: inactive; negative | mutagenic call [2]: inactive; negative | mutagenic call [5]: inactive; negative | mutagenic call [6]: inactive; negative

Cc1ccc2cc3ccc4ccccc4c3nc2c1
mutagenic call (Test System: AMES SALMONELLA TYPHIMURIUM, Strain/Indicator: TA97A, Metabolic Activation: NONE, Method: PREINCUBATION): inactive; negative | mutagenic call [3]: inactive; negative | mutagenic call [4]: active; positive | mutagenic call [5]: inactive; negative

O=C(Cl)c1ccccc1Cl
mutagenic call [3]: inactive; negative | mutagenic call (Test System: AMES SALMONELLA TYPHIMURIUM, Strain/Indicator: TA98, Metabolic Activation: RAT LIVER S-9, PCB, Method: PREINCUBATION): active; positive | mutagenic call [4]: active; positive | mutagenic call (Test System: AMES SALMONELLA TYPHIMURIUM, Strain/Indicator: TA100, Metabolic Activation: RAT LIVER S-9, PCB, Method: PREINCUBATION): active; positive | mutagenic call [7]: active; positive | mutagenic call (Test System: AMES SALMONELLA TYPHIMURIUM, Strain/Indicator: TA104, Metabolic Activation: RAT LIVER S-9 PCB, Method: PREINCUBATION): active; positive | mutagenic call (Test System: E.COLI, Strain/Indicator: WP2 UVRA, Metabolic Activation: NONE, Method: PREINCUBATION): inactive; negative | mutagenic call (Test System: E.COLI, Strain/Indicator: WP2 UVRA, Metabolic Activation: RAT LIVER S-9, PCB, Method: PREINCUBATION): active; positive

C=CCNC(N)=O
mutagenic call (Test System: AMES SALMONELLA TYPHIMURIUM, Strain/Indicator: TA98, Metabolic Activation: HAMSTER, LIVER, S-9, AROCLOR 1254 (30%), Method: PREINCUBATION): inactive; negative | mutagenic call [3]: inactive; negative | mutagenic call (Test System: AMES SALMONELLA TYPHIMURIUM, Strain/Indicator: TA100, Metabolic Activation: HAMSTER, LIVER, S-9, AROCLOR 1254 (5, 10 OR 30%), Method: PREINCUBATION): inactive; negative | mutagenic call [4]: inactive; negative | mutagenic call (Test System: AMES SALMONELLA TYPHIMURIUM, Strain/Indicator: TA100, Metabolic Activation: RAT, LIVER, S-9, AROCLOR 1254 (30%), Method: PREINCUBATION): inactive; negative | mutagenic call (Test System: AMES SALMONELLA TYPHIMURIUM, Strain/Indicator: TA1535, Metabolic Activation: HAMSTER, LIVER, S-9, AROCLOR 1254 (5 OR 10%), Method: PREINCUBATION): inactive; negative | mutagenic call (Test System: AMES SALMONELLA TYPHIMURIUM, Strain/Indicator: TA1535, Metabolic Activation: HAMSTER, LIVER, S-9, AROCLOR 1254 (30%), Method: PREINCUBATION): active; positive
